# Data from ChEMBL document CHEMBL1201862, “PubChem BioAssay data set” (2004).
#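 1) Cells in 96-well plates. 2) Compound, 48 h, 5 concentrations. 3) Linear interpolation between surrounding doses. 4) Unreached endpoint = highest concentration. Abbreviation: GI50, concentration required for 50% inhibition of growth.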 The source made the active and inactive calls. Cut-off read from the data, not from the text of the source: active = GI50 up to about 1.1 µM and inactive = higher.
# Columns and labels:
# Assay in all cases: inhibition of tumour cell growth, NCI panel, 48 h
# [1] = system: LXFL 529
# [2] = system: NCI-H23
# [3] = system: U-251
# [4] = system: XF498
# [5] = system: HOP-92
# [6] = system: TK-10
# [7] = system: OVCAR-8
# [8] = system: MOLT-4
# [9] = system: HCC 2998
# [10] = system: SNB-19
# [11] = system: SF-539
# [12] = system: RPMI-8226
# [13] = system: K562
# [14] = system: 786-0
# [15] = system: HT-29
# [16] = system: UO-31
# [17] = system: SW-620
# [18] = system: HOP-18
# [19] = system: SK-MEL-5
# [20] = system: M14
# [21] = system: EKVX
# [22] = system: HL-60
# [23] = system: HOP-62
# [24] = system: UACC-257
# [25] = system: COLO 205
# [26] = system: OVCAR-3
# [27] = system: ACHN
# [28] = system: SK-OV-3
# [29] = system: KM12
# [30] = system: DMS-114
# [31] = system: A498
# [32] = system: SF-268
# [33] = system: OVCAR-5
# [34] = system: UACC-62
# [35] = system: DLD-1
# [36] = system: A549
# [37] = system: SF-295
# [38] = system: SNB-75
# [39] = system: NCI-H226
# [40] = system: CCRF-CEM
# [41] = system: SN12C
# [42] = system: OVCAR-4
# [43] = system: NCI-H522
# [44] = system: M19-MEL
# [45] = system: KM-20L2
# [46] = system: IGROV-1
# [47] = system: Malme-3M
# [48] = system: HCT-116
# [49] = system: LOX IMVI
# [50] = system: DMS-273
# [51] = system: SK-MEL-28
# [52] = system: RXF 393
# [53] = system: HCT-15
# [54] = system: NCI-H460
# [55] = system: CAKI-1
# [56] = system: SK-MEL-2
# [57] = system: SR
smiles,measurement,setting,value
COC(=O)/N=C(\NC(=O)OC)Nc1ccc(Oc2ccccc2)cc1NC=O,GI50,[1],0.667 µM (active)
same,GI50,[2],0.824 µM (active)
same,GI50,[3],0.333 µM (active)
same,GI50,[4],0.369 µM (active)
same,GI50,[5],24.3 µM (inactive)
same,GI50,[6],9.57 µM (inactive)
same,GI50,[7],0.593 µM (active)
same,GI50,[8],0.836 µM (active)
same,GI50,[9],968 nM (active)
same,GI50,[10],> 100 µM (inactive)
same,GI50,[11],0.433 µM (active)
same,GI50,[12],2.55 µM (inactive)
same,GI50,[13],0.265 µM (active)
same,GI50,[14],0.483 µM (active)
same,GI50,[15],0.348 µM (active)
same,GI50,[16],0.871 µM (active)
same,GI50,[17],0.388 µM (active)
same,GI50,[18],> 100 µM (inactive)
same,GI50,[19],0.341 µM (active)
same,GI50,[20],0.401 µM (active)
same,GI50,[21],89.5 µM (inactive)
same,GI50,[22],0.206 µM (active)
same,GI50,[23],0.912 µM (active)
same,GI50,[24],2.48 µM (inactive)
same,GI50,[25],0.2 µM (active)
same,GI50,[26],0.327 µM (active)
same,GI50,[27],0.881 µM (active)
same,GI50,[28],0.215 µM (active)
same,GI50,[29],0.466 µM (active)
same,GI50,[30],0.253 µM (active)
same,GI50,[31],0.294 µM (active)
same,GI50,[32],0.673 µM (active)
same,GI50,[33],> 100 µM (inactive)
same,GI50,[34],0.573 µM (active)
same,GI50,[35],0.536 µM (active)
same,GI50,[36],0.597 µM (active)
same,GI50,[37],0.439 µM (active)
same,GI50,[38],0.421 µM (active)
same,GI50,[39],0.977 µM (active)
same,GI50,[40],0.692 µM (active)
same,GI50,[41],1.58 µM (inactive)
same,GI50,[42],0.891 µM (active)
same,GI50,[43],0.253 µM (active)
same,GI50,[44],0.312 µM (active)
same,GI50,[45],0.242 µM (active)
same,GI50,[46],1.62 µM (inactive)
same,GI50,[47],0.579 µM (active)
same,GI50,[48],0.49 µM (active)
same,GI50,[49],1.97 µM (inactive)
CC(=O)OC1CC2Oc3ccc(C)cc3C(C)(O2)C1=O (stereo not given),GI50,[2],> 100 µM (inactive)
same,GI50,[3],> 100 µM (inactive)
same,GI50,[4],76 µM (inactive)
same,GI50,[6],> 100 µM (inactive)
same,GI50,[7],> 100 µM (inactive)
same,GI50,[8],> 100 µM (inactive)
same,GI50,[10],> 100 µM (inactive)
same,GI50,[11],> 100 µM (inactive)
same,GI50,[12],> 100 µM (inactive)
same,GI50,[13],> 100 µM (inactive)
same,GI50,[50],> 100 µM (inactive)
same,GI50,[14],> 100 µM (inactive)
same,GI50,[15],> 100 µM (inactive)
same,GI50,[16],> 100 µM (inactive)
same,GI50,[51],> 100 µM (inactive)
same,GI50,[17],> 100 µM (inactive)
same,GI50,[18],> 100 µM (inactive)
same,GI50,[19],> 100 µM (inactive)
same,GI50,[20],> 100 µM (inactive)
same,GI50,[21],> 100 µM (inactive)
same,GI50,[52],> 100 µM (inactive)
same,GI50,[22],> 100 µM (inactive)
same,GI50,[23],> 100 µM (inactive)
same,GI50,[24],> 100 µM (inactive)
same,GI50,[25],> 100 µM (inactive)
same,GI50,[26],> 100 µM (inactive)
same,GI50,[27],> 100 µM (inactive)
same,GI50,[28],> 100 µM (inactive)
same,GI50,[29],> 100 µM (inactive)
same,GI50,[30],> 100 µM (inactive)
same,GI50,[53],> 100 µM
same,GI50,[34],> 100 µM (inactive)
same,GI50,[35],> 100 µM (inactive)
same,GI50,[36],> 100 µM (inactive)
same,GI50,[37],> 100 µM (inactive)
same,GI50,[38],51.1 µM (inactive)
same,GI50,[39],> 100 µM (inactive)
same,GI50,[40],> 100 µM (inactive)
same,GI50,[54],> 100 µM (inactive)
same,GI50,[41],> 100 µM (inactive)
same,GI50,[43],> 100 µM (inactive)
same,GI50,[44],> 100 µM (inactive)
same,GI50,[46],> 100 µM (inactive)
same,GI50,[47],> 100 µM (inactive)
same,GI50,[48],> 100 µM (inactive)
same,GI50,[49],> 100 µM (inactive)
CC(C)(C)c1cc2c3c(c1)c(=O)c1cccc4c(O)c5cccc(c2=O)c5c-3c41,GI50,[1],> 100 µM (inactive)
same,GI50,[2],68.4 µM (inactive)
same,GI50,[3],57.7 µM (inactive)
same,GI50,[4],35.5 µM (inactive)
same,GI50,[5],36.6 µM (inactive)
same,GI50,[6],> 100 µM (inactive)
same,GI50,[7],> 100 µM (inactive)
same,GI50,[8],38.1 µM (inactive)
same,GI50,[9],10.5 nM (active)
same,GI50,[10],> 100 µM (inactive)
same,GI50,[55],> 100 µM (inactive)
same,GI50,[11],10 µM (inactive)
same,GI50,[56],24.7 µM (inactive)
same,GI50,[13],38.5 µM (inactive)
same,GI50,[50],26.1 µM (inactive)
same,GI50,[14],84.7 µM (inactive)
same,GI50,[15],27.7 µM (inactive)
same,GI50,[16],> 100 µM (inactive)
same,GI50,[51],10 µM (inactive)
same,GI50,[17],> 100 µM (inactive)
same,GI50,[18],> 100 µM (inactive)
same,GI50,[20],40.7 µM (inactive)
same,GI50,[21],> 100 µM (inactive)
same,GI50,[52],34 µM (inactive)
same,GI50,[22],58.5 µM (inactive)
same,GI50,[23],47 µM (inactive)
same,GI50,[24],> 100 µM (inactive)
same,GI50,[25],> 100 µM (inactive)
same,GI50,[26],40.4 µM (inactive)
same,GI50,[27],> 100 µM (inactive)
same,GI50,[28],> 100 µM (inactive)
same,GI50,[29],38.1 µM (inactive)
same,GI50,[30],10 µM (inactive)
same,GI50,[31],99.1 µM (inactive)
same,GI50,[32],> 100 µM (inactive)
same,GI50,[33],92.5 µM (inactive)
same,GI50,[53],48.5 µM
same,GI50,[34],> 100 µM (inactive)
same,GI50,[35],61 µM (inactive)
same,GI50,[36],> 100 µM (inactive)
same,GI50,[37],60.1 µM (inactive)
same,GI50,[38],> 100 µM (inactive)
same,GI50,[39],> 100 µM (inactive)
same,GI50,[57],15.3 µM (inactive)
same,GI50,[40],45.1 µM (inactive)
same,GI50,[54],54.1 µM (inactive)
same,GI50,[41],> 100 µM (inactive)
same,GI50,[42],> 100 µM (inactive)
same,GI50,[43],> 100 µM (inactive)
same,GI50,[44],> 100 µM (inactive)
same,GI50,[45],33.2 µM (inactive)
same,GI50,[46],> 100 µM (inactive)
same,GI50,[47],> 100 µM (inactive)
same,GI50,[48],59.7 µM (inactive)
same,GI50,[49],41.2 µM (inactive)
